Laboratory results: the supplement of paper PMC10331698
± gives the standard deviation of the averaged measurements.

Assays:
Experiment in all cases: level (log10 ratio to DMSO vehicle control); higher = higher biomarker level / cell amount than vehicle control
Conditions in all cases: in DMSO
[1] = compound: FC(F)(F)C(F)(F)C(F)(F)C(F)(F)C(F)(F)C(F)(F)C(F)(F)CCI [1-Iodo-1H,1H,2H,2H-perfluorononane]
Description: (§1)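 BioMAP Diversity Plus panel of 12 human primary cell co-culture systems (3C, 4H, LPS, SAg, BT, BF4T, BE3C, CASM3C, HDF3CGF, KF3CT, MyoF, Mphg). Compounds were added 1 h before stimulation and left for 24 h (MyoF 48 h; BT 72 h for soluble read-outs or 6 d for IgG). Biomarkers were read by ELISA, cytotoxicity by SRB, PBMC viability and proliferation by Alamar Blue. Each well value was divided by the mean of 8 DMSO control wells on the same plate and log10 transformed; duplicate blinded samples were tested at 4 concentrations.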

[2] = compound: C=C(C)C(=O)OCC(F)(F)C(F)(F)C(F)(F)C(F)(F)C(F)(F)C(F)(F)C(F)(F)F
Description: as §1

1H,1H-Heptafluorobutanol = compound: OCC(F)(F)C(F)(F)C(F)(F)F [1H,1H-Heptafluorobutanol]
Description: as §1

[3] = compound: O=C(O)CCC(F)(F)C(F)(F)C(F)(F)F [3:3 Fluorotelomer carboxylic acid]
Description: as §1

[4] = compound: C=CC(=O)OCCC(F)(F)C(F)(F)C(F)(F)C(F)(F)F [2-(Perfluorobutyl)ethyl acrylate]
Description: as §1

[5] = compound: O=S(=O)(O)C(F)(F)C(F)(F)C(F)(F)C(F)(F)F [Perfluorobutanesulfonic acid]
Description: as §1

[6] = compound: O=P(O)(O)CCC(F)(F)C(F)(F)C(F)(F)C(F)(F)C(F)(F)C(F)(F)C(F)(F)C(F)(F)F [((Perfluorooctyl)ethyl)phosphonic acid]
Description: as §1

Test System | level (log10) ([1]; 6700 nM) | level (log10) ([1]; 20000 nM) | level (log10) ([2]; 6700 nM) | level (log10) ([2]; 20000 nM) | level (log10) (1H,1H-Heptafluorobutanol; 6700 nM) | level (log10) (1H,1H-Heptafluorobutanol; 20000 nM) | level (log10) (1H,1H-Heptafluorobutanol; 60000 nM) | level (log10) ([3]; 6700 nM) | level (log10) ([3]; 20000 nM) | level (log10) ([3]; 60000 nM) | level (log10) ([4]; 6700 nM) | level (log10) ([4]; 20000 nM) | level (log10) ([4]; 60000 nM) | level (log10) ([5]; 6700 nM) | level (log10) ([5]; 20000 nM) | level (log10) ([5]; 60000 nM) | level (log10) ([6]; 6700 nM) | level (log10) ([6]; 20000 nM) | level (log10) ([6]; 60000 nM)
HDF3CGF:CXCL11/I-TAC | -0.0295 ± 0.005 | -0.094 ± 0.018 | 0.016 ± 0.0071 | -0.009 ± 0.023 | -0.0135 ± 0.022 | -0.0185 ± 0.011 | -0.031 ± 0.061 | 0.0025 ± 0.0092 | -0.0065 ± 0.0078 | 0.012 ± 0.035 | -0.045 ± 0.062 | -0.124 ± 0.023 | -0.317 ± 0.087 | -0.0235 ± 0.00071 | 0.005 ± 0.0028 | -0.005 ± 0.0014 | 0.084 ± 0.0014 | 0.064 ± 0.018 | -0.0155 ± 0.035
HDF3CGF:Collagen I | 0.0105 ± 0.042 | -0.011 ± 0.058 | -0.0035 ± 0.0078 | 0.0375 ± 0.005 | -0.005 ± 0.016 | -0.0215 ± 0.0021 | 0.012 ± 0.017 | -0.029 ± 0.0042 | -0.006 ± 0.035 | 0.0325 ± 0.07 | -0.065 ± 0.02 | -0.0225 ± 0.042 | -0.0295 ± 0.054 | 0.0175 ± 0.037 | -0.003 ± 0.025 | 0.0345 ± 0.043 | -0.041 | -0.116 ± 0.015 | -0.148 ± 0.1
HDF3CGF:Collagen III | -0.063 ± 0.023 | -0.138 ± 0.028 | -0.004 ± 0.0042 | -0.0005 ± 0.0078 | -0.0055 ± 0.076 | -0.0285 ± 0.052 | -0.0155 ± 0.044 | -0.012 ± 0.017 | -0.007 ± 0.025 | 0.0245 ± 0.054 | -0.005 ± 0.0014 | -0.0605 ± 0.0021 | -0.127 ± 0.03 | -0.013 ± 0.048 | 0.035 ± 0.016 | 0.047 ± 0.016 | -0.119 ± 0.011 | -0.193 | -0.281 ± 0.029
HDF3CGF:EGFR | 0.016 | 0.0295 ± 0.023 | 0.0245 ± 0.005 | -0.007 ± 0.048 | -0.086 ± 0.031 | -0.0205 ± 0.081 | -0.039 ± 0.1 | -0.023 ± 0.018 | -0.012 ± 0.024 | -0.003 ± 0.045 | -0.002 ± 0.016 | -0.0165 ± 0.005 | -0.0055 ± 0.021 | 0.0105 ± 0.005 | -0.032 ± 0.048 | -0.0205 ± 0.032 | -0.0125 ± 0.016 | -0.045 ± 0.024 | -0.126 ± 0.059
HDF3CGF:M-CSF | -0.0895 ± 0.049 | -0.12 ± 0.064 | 0.009 ± 0.033 | 0.0245 ± 0.03 | 0.0045 ± 0.035 | 0.0335 ± 0.00071 | 0.004 ± 0.02 | 0.002 ± 0.0099 | -0.004 ± 0.0042 | 0.001 ± 0.013 | -0.0445 ± 0.0092 | -0.154 ± 0.054 | -0.259 ± 0.12 | 0.011 ± 0.0085 | 0.0045 ± 0.0035 | 0.0025 ± 0.005 | 0.0235 ± 0.016 | -0.009 ± 0.0028 | -0.113 ± 0.016
HDF3CGF:MMP-1 | 0.011 ± 0.017 | 0.061 ± 0.04 | -0.003 ± 0.02 | -0.0045 ± 0.026 | 0.0025 ± 0.018 | -0.0035 ± 0.0021 | -0.016 ± 0.059 | 0.0045 ± 0.037 | 0.009 ± 0.017 | 0.0045 ± 0.015 | 0.0135 ± 0.0064 | 0.0905 ± 0.022 | 0.133 ± 0.022 | 0.0085 ± 0.011 | 0.002 ± 0.013 | -0.0165 ± 0.036 | -0.019 ± 0.011 | -0.021 ± 0.0057 | -0.05 ± 0.0042
HDF3CGF:PAI-I | 0.0075 ± 0.023 | -0.0095 ± 0.032 | 0.011 ± 0.0099 | 0.0095 ± 0.019 | -0.037 ± 0.037 | -0.0045 ± 0.025 | -0.054 ± 0.083 | -0.006 ± 0.031 | -0.0035 ± 0.023 | 0.0085 ± 0.005 | -0.0135 ± 0.0035 | -0.0185 ± 0.023 | -0.016 ± 0.024 | -0.017 ± 0.034 | 0.007 ± 0.045 | -0.0075 ± 0.03 | -0.028 ± 0.035 | -0.101 ± 0.06 | -0.2695 ± 0.0021
HDF3CGF:Proliferation 72hr | -0.689 ± 0.0092 | -0.815 ± 0.25 | 0.019 ± 0.018 | 0.001 ± 0.038 | -0.011 ± 0.023 | 0.0255 ± 0.032 | -0.029 ± 0.013 | -0.0095 ± 0.015 | 0.0385 ± 0.0092 | 0.021 ± 0.027 | -0.0325 ± 0.0092 | -0.124 ± 0.054 | -0.197 ± 0.041 | -0.0045 ± 0.013 | -0.0195 ± 0.015 | 0.0155 ± 0.05 | 0.017 ± 0.065 | -0.0105 ± 0.087 | -0.374 ± 0.034
